The values below come from patent US20110152229A1, “BETULINIC ACID DERIVATIVES AS ANTI-HIV AGENTS” (Duke University, priority 2006, published 2011).

Like-named read-outs stand apart in the source and are kept apart here.

One data set deals with HIV-1 NL4-3. Nature of the data set: Anti-HIV assay: HIV-1 NL4-3 replication in MT4 cells (p24 ELISA). Type of data set: cell-based. The source says: Anti-HIV assay: A previously known HIV-1 infectivity assay was used in the experiments (See Zhu, et al. Proc. Natl. Acad. Sci. U.S.A. 2001, 98, 15227). A 96-well microtiter plate was used to set up the HIV-1 NL4-3 replication assay. HIV-1 NL4-3 at a multiplicity of infection (MOI) of 0.01 was used to infect MT4 cells. Culture supernatants were collected on day 4 post infection for p24 assay using an ELISA kit from ZeptoMetrix Corporation (Buffalo, N.Y.). Cell fusion assay: TZM cells that express luciferase upon fusion with envelope-expressing COS cells were used as fusion partners. The fusion assays were performed by transfecting monkey kidney cells (COS) with the expression vector pSRHS that contains the HIV-1 NL4-3 envelope genes. Electroporation was performed to express the HIV-1 envelope on COS cells. Briefly, COS cells (10^6) in culture medium were incubated with 2 μg of the envelope expression vector on ice for 10 min. Electroporation was performed using a gene pulser (BioRad, Hercules, Calif.) with capacitance set at 950 μF and voltage at 150 V. The transfected COS cells were cultured for one day before mixing with TZM cells. TZM cells (10×10^4) were incubated with COS cells (10^4) in 96-well flat-bottomed plates (Costar) in 100 μl culture medium. Compounds to be tested at various concentrations in 10 μl of culture medium were incubated with the cell mixtures at 37° C. for 24 hours. A Promega luciferase assay kit was used to quantify luciferase activity in the fused cells using a Biotek luminometer. The drug concentration that reduced the control HIV-1 envelope-mediated fusion by 50% is defined as 50% effective concentration (EC50). HIV-1 maturation assay: MT4 cells (10^5 cells/mL) were infected with HIV-1 NL4-3 at a multiplicity of infection (MOI) of 0.01 infectious units/cells for three days. The culture medium was removed and the infected cells were resuspended at 5×10^5 cells/mL and treated with BA derivatives at various concentrations. The virions in the culture supernatant were collected one day after drug treatment. The viral particles were spun down and subjected to Western Blot analysis of p24 and p25 as previously described. (See Zhou, et al. J. Virol. 2004, 78, 922 and Zhou, et al., Retrovirology 2004, 1, 15.)
Table 1 illustrated the effect of compound 11, 16-20 and 18b against HIV-NL4-3 in MT4 cells.

The subject of another data set is MT4 cells. The experiment in a line: Reduction of viable cells in a 4-day assay (MT4 cells). Conditions: Homo sapiens, read-out: IC50 (drug concentration that resulted in a 50% reduction of viable cells). The class given is cell-based.
The next data set has as its system HIV-1 NL4-3 envelope. Nature of the data set: Cell fusion assay (luciferase-based; TZM cells with envelope-expressing COS cells). To be noted: FIG. 1; TZM/COS fusion partners, luciferase readout. An excerpt: (§1) Anti-HIV assay: A previously known HIV-1 infectivity assay was used in the experiments (See Zhu, et al. Proc. Natl. Acad. Sci. U.S.A. 2001, 98, 15227). A 96-well microtiter plate was used to set up the HIV-1 NL4-3 replication assay. HIV-1 NL4-3 at a multiplicity of infection (MOI) of 0.01 was used to infect MT4 cells. Culture supernatants were collected on day 4 post infection for p24 assay using an ELISA kit from ZeptoMetrix Corporation (Buffalo, N.Y.). Cell fusion assay: TZM cells that express luciferase upon fusion with envelope-expressing COS cells were used as fusion partners. The fusion assays were performed by transfecting monkey kidney cells (COS) with the expression vector pSRHS that contains the HIV-1 NL4-3 envelope genes. Electroporation was performed to express the HIV-1 envelope on COS cells. Briefly, COS cells (10^6) in culture medium were incubated with 2 μg of the envelope expression vector on ice for 10 min. Electroporation was performed using a gene pulser (BioRad, Hercules, Calif.) with capacitance set at 950 μF and voltage at 150 V. The transfected COS cells were cultured for one day before mixing with TZM cells. TZM cells (10×10^4) were incubated with COS cells (10^4) in 96-well flat-bottomed plates (Costar) in 100 μl culture medium. […] A Promega luciferase assay kit was used to quantify luciferase activity in the fused cells using a Biotek luminometer. […]

The test system of the next data set is HIV-1 p25 processing. The experiment in a line: HIV-1 maturation assay (Western blot of p24 and p25). The class given is cell-based. To be noted: FIG. 2; p25 detected by Western blot.
Source text: as §1

Where [1] appears, read: 96 h, cytotoxicity, 4-day assay, MT4 cells, average of at least two experiments.
[2] abbreviates: Human immunodeficiency virus 1, NL43, HIV-NL4-3 in MT4 cells, average of at least two experiments, read-out: EC50 (concentration that inhibits HIV-1 replication by 50%).
Setting [3] is: Human immunodeficiency virus 1, NL43, MT4, read-out: EC50 (concentration that inhibits HIV-1 replication by 50%).

As for `C=C(C)[C@@H]1CC[C@]2(C(=O)O)CC[C@]3(C)[C@H](CC[C@@H]4[C@@]5(C)CC[C@H](O)C(C)(C)[C@@H]5CC[C@]43C)[C@@H]12` [Betulinic acid], the “inhibition of NL4-3 replication” value in the data set with HIV-1 NL4-3 (negative control, concentration not given) was “did not inhibit”.
The compound `C=C(C)[C@@H]1CC[C@]2(C(=O)On3nnc4ccccc43)CC[C@]3(C)[C@H](CC[C@@H]4[C@@]5(C)CC[C@H](OC(=O)C(C)(C)CC(=O)O)C(C)(C)[C@@H]5CC[C@]43C)[C@@H]12` [Compound 11, O-[3β-O-(2′,2′-Dimethylsuccinyl)-lup-20(29)-en-28-oyl]-1-hydroxybenzotriazole] came in with a melting point of 151 to 154 °C. Moreover, the IC50 in the data set on MT4 cells (setting [1]) came out at 2.5 µM. Moreover, the EC50 in the data set with HIV-1 NL4-3 (setting [2]) was determined as 0.035 µM.
For `C=C(C)[C@@H]1CC[C@]2(C(=O)NCCCCCNC(C)=O)CC[C@]3(C)[C@H](CC[C@@H]4[C@@]5(C)CC[C@H](OC(=O)CC(C)(C)C(=O)O)C(C)(C)[C@@H]5CC[C@]43C)[C@@H]12` [Compound 16, [[N-[3β-O-(3′,3′-dimethylsuccinyl)-lup-20(29)-en-28-oyl]-5-aminopentyl]-carbamoyl]methane], in that order: 137 °C (dec.), 9 µM and 0.012 µM.
For `C=C(C)[C@@H]1CC[C@]2(C(=O)NCCCCCCNC(C)=O)CC[C@]3(C)[C@H](CC[C@@H]4[C@@]5(C)CC[C@H](OC(=O)CC(C)(C)C(=O)O)C(C)(C)[C@@H]5CC[C@]43C)[C@@H]12` [Compound 17, [[N-[3β-O-(3′,3′-Dimethylsuccinyl)-lup-20(29)-en-28-oyl]-6-aminohexyl]-carbamoyl]methane] the same measures were 137 °C (dec.), 7.5 µM and 0.007 µM.
Turning to `C=C(C)[C@@H]1CC[C@]2(C(=O)NCCCCCCCNC(C)=O)CC[C@]3(C)[C@H](CC[C@@H]4[C@@]5(C)CC[C@H](OC(=O)CC(C)(C)C(=O)O)C(C)(C)[C@@H]5CC[C@]43C)[C@@H]12` [Compound 18, [[N-[3β-O-(3′,3′-Dimethylsuccinyl)-lup-20(29)-en-28-oyl]-7-aminoheptyl]-carbamoyl]methane], the melting point lay in the range of 117 to 120 °C. Moreover, in the data set with MT4 cells (MT4, 96 h), the IC50 worked out at 8 µM. In addition, the EC50 in the data set on HIV-1 NL4-3 (setting [3]) is 0.0026 µM. Also, the “anti-fusion activity: HIV-1 envelope mediated membrane fusion” value in the data set with HIV-1 NL4-3 envelope was “inhibits HIV-1 envelope mediated membrane fusion”. Besides, in the data set on HIV-1 p25 processing, the “anti-maturation activity: HIV-1 p25 processing” value is reported as “interfere with HIV-1 p25 processing”.
On to `C=C(C)[C@@H]1CC[C@]2(C(=O)NCCCCCCCNC(C)=O)CC[C@]3(C)[C@H](CC[C@@H]4[C@@]5(C)CC[C@H](O)C(C)(C)[C@@H]5CC[C@]43C)[C@@H]12` [Compound 18b, [[N-[3β-Hydroxy-lup-20(29)-en-28-oyl]-7-aminoheptyl]-carbamoyl]methane], for which, in the data set on MT4 cells (MT4, 96 h), the IC50 is more than 10 µM. In the data set on HIV-1 NL4-3 (setting [3]), the EC50 came to 0.047 µM. The “anti-fusion activity: HIV-1 envelope mediated membrane fusion” value in the data set on HIV-1 NL4-3 envelope is on record as “inhibits HIV-1 envelope mediated membrane fusion”.
`C=C(C)[C@@H]1CC[C@]2(C(=O)NCCCCCCCCNC(C)=O)CC[C@]3(C)[C@H](CC[C@@H]4[C@@]5(C)CC[C@H](OC(=O)CC(C)(C)C(=O)O)C(C)(C)[C@@H]5CC[C@]43C)[C@@H]12` [Compound 19, [[N-[3β-O-(3′,3′-Dimethylsuccinyl)-lup-20(29)-en-28-oyl]-8-aminooctyl]-carbamoyl]methane] yielded a melting point of 113 to 115 °C. The IC50 in the data set on MT4 cells (setting [1]) was determined as 7 µM. Moreover, the EC50 in the data set with HIV-1 NL4-3 (setting [2]) is 0.0036 µM.
`C=C(C)[C@@H]1CC[C@]2(C(=O)NCCCCCCCCCNC(C)=O)CC[C@]3(C)[C@H](CC[C@@H]4[C@@]5(C)CC[C@H](OC(=O)CC(C)(C)C(=O)O)C(C)(C)[C@@H]5CC[C@]43C)[C@@H]12` [Compound 20, [[N-[3β-O-(3′,3′-Dimethylsuccinyl)-lup-20(29)-en-28-oyl]-9-aminonoyl]-carbamoyl]methane] returned a melting point of 120 to 122 °C. In the data set with MT4 cells (setting [1]), the IC50 was 7.4 µM. Moreover, the EC50 in the data set on HIV-1 NL4-3 (setting [2]) was 0.012 µM.
